Data on one molecule can be found in patent US6426076B1 (PASCO Pharmazeutische Präparate GmbH, priority 1997, dated 2002).

Each structure is given as a SMILES string.

Data set [1] deals with metastatic breast cancer and massive bone metastases. Nature of the data set: Case 2: vitamin C infusions in a patient with metastatic breast cancer and bone metastases, with concomitant chemotherapy. The data set is classed as in vivo, human. The following applies: ten infusions of 7.5 g vitamin C each.
The nature of data set [2]: Animal experiments: combination with adriamycin, survival time.
Data set [3] relates to cancer patients. The following applies: high-dose vitamin C therapy, case reports; cited from earlier work.
A further data set has as its system skin metastases. Description: Case 1: vitamin C infusions in a patient with breast carcinoma, local recurrences and skin metastases. The data set is classed as in vivo, human. To be noted: vitamin C infusions of 7.5 g per infusion.
The test system of data set [4] is cancer patients. To be noted: intravenous 0.5 to 10 g/day, then oral 10 to 30 g, cited from earlier work.
For the next data set, the system named is terminal cancer patients. The following applies: 100 terminal cancer patients, 10 g vitamin C orally each day; cited from earlier work.
The test system of data set [5] is normal tissue (skin and bone marrow). Nature of the data set: Adjuvant vitamin C infusions with radiation therapy: radiation tolerance of normal tissue. The data set is classed as in vivo.
The next data set concerns normal cell lines. The following applies: in the concentrations cytotoxic to tumor cell lines; cited from earlier work.
A short description of data set [6]: Combination therapy of cytostatics with vitamin C: loss of cytostatic effect. To be noted: any of the cytostatics investigated. From the text:
The side effects of chemotherapy are also attributed to an increase in the levels of free radicals in many tissues.

The test system of a further data set is tumor cell lines. The following applies: in certain concentrations; cited from earlier work.
[7] abbreviates: intravenous infusion of 7.5 g vitamin C before and after each radiation.

Consider `O=C1O[C@H]([C@@H](O)CO)C(O)=C1O` [vitamin C, ascorbic acid], for which the “pain caused by the bone metastases” value in [1] is given as “great relief from the pain”. Moreover, the “blood picture (leukocytes and platelets)” value in data set [1] (concomitant chemotherapy) is “definite improvement in the blood picture (stabilization of leukocytes and platelets)”. In addition, in data set [2], the survival time entry was “prolonged survival time”. The “general condition and remissions” value in the data set with cancer patients [3] was “improvement in general condition and spontaneous remissions”. For the same molecule, in the data set on skin metastases, the “comparison with local-acting cytostatic administered previously” value is “superior to the local-acting cytostatic administered previously” and the “effect on skin metastases” value is on record as “remission of the skin metastases”. Besides, in the data set on cancer patients [4], the “general well-being and Karnofsky scale” value is “improvement in general well-being and the Karnofsky scale”; the “pain in skeletal metastasis” value is listed as “relief from pain in cases of skeletal metastasis”; the “protein tumor markers in the serum” value is on record as “decline in protein tumor markers in the serum”. In the data set with cancer patients [4] (in favorable cases), the “malignant pleural effusions and pulmonary metastases” value is “absorption of malignant pleural effusions and a reduction in the size of pulmonary metastases”. For the same molecule, in the data set with terminal cancer patients, the “survival time versus control group” value was “longer than that of the control group”. In data set [5] (setting [7]), the “radioprotective effect on bone marrow” value was “greatly improved” and the “skin reactions accompanying radiation” value was “can be prevented”. Moreover, the “increase of radiation tolerance of normal tissue” value in data set [5] (vitamin C infusions, without increasing the radiation dose required to remove the tumors) is reported as “about 20%”. Further, in the data set with normal cell lines, the “growth of normal cell lines” value is “not influenced”. Further, the “loss of effect of the cytostatics” value in data set [6] is listed as “no loss of effect”. Also, in the data set on tumor cell lines, the “effect on tumor cell lines” value is recorded as “cytotoxic effect”.
